Test results published in PMC11784839, “Monoaminergic neurotransmitters are bimodal effectors of tau aggregation” (Science Advances, 2025).

Molecular target: tau (Homo sapiens, UniProt P10636)
Assay: MCE Phenols Library screening, tau biosensor cell seeding assay (AvZ)
Assay type: cell-based
Conditions: for AvZ (average z score of seeding, SDs from the mean level of seeding): 10 μM phenol in cell cultures, AD brain homogenate preincubated 16 hours, two biological replicates, positive = catalyzes seeding, negative = inhibits; for Z repl 1 / Z Repl 2: Z score; for Z repl 1 / raw data 1: replicate 1; for Z Repl 2 / raw data 2: replicate 2
[1] = average puncta of the two replicates
[2] = average Z score of the two replicates, MCE Phenols Library screen
[3] = average Z score of the two replicates, tau seeding

tau, sequence (P10636 623-695 limits assumed): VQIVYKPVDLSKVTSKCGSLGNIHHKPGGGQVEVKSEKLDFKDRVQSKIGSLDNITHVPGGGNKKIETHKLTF

Compound	AvZ (average z score of seeding, SDs from the mean level of seeding)	Z repl 1	Z Repl 2	av puncta [1]	raw data 1 (raw puncta)	raw data 2 (raw puncta)	av Z [2]	av puncta (average of raw data 1 and 2)	raw data 1 (puncta)	raw data 2 (puncta)	av Z [3]	av Z (average Z score of the two replicates, tau biosensor seeding, MCE Phenols Library screen)	av Z (average Z score of two replicates, Phenols Library screen)
COc1cc(CNC(=O)CCCCCC(C)C)ccc1O [Nordihydrocapsaicin]	-0.342	-0.001	-0.682	15905.5	26333.1	5477.91							
CCc1c(Cl)c(O)c(Cl)c(O)c1C(=O)O[C@H]1[C@H](O)[C@H](OC)[C@H](OC/C2=C\C=C\C[C@H](O)/C(C)=C/[C@H](CC)[C@@H](O[C@@H]3OC(C)(C)[C@@H](OC(=O)C(C)C)[C@H](O)[C@@H]3O)/C(C)=C/C(C)=C/C[C@@H]([C@@H](C)O)OC2=O)O[C@@H]1C [Fidaxomicin]		0.356	0.717					25523.7	30618.6	20428.7	0.537		
O=C(C=Cc1ccc(O)c(O)c1)OC1CC(OC(=O)C=Cc2ccc(O)c(O)c2)(C(=O)O)CC(O)C1O (stereo not shown) [1,3-Dicaffeoylquinic acid]		-1.077	-0.588				-0.832	9954.06	13417.7	6490.43			
O=C(O)c1cc(O)c2c(c1)[C@H]([C@H]1c3cc(C(=O)O)cc(O)c3C(=O)c3c(O[C@@H]4O[C@H](CO)[C@@H](O)[C@H](O)[C@H]4O)cccc31)c1cccc(O[C@@H]3O[C@H](CO)[C@@H](O)[C@H](O)[C@H]3O)c1C2=O [Sennoside A]		-1.043	-0.801				-0.922	9021.29	13826.4	4216.17			
O=C(O)[C@H]1O[C@@H](Oc2cc(O)c3c(=O)cc(-c4ccc(O)c(O)c4)oc3c2)[C@H](O)[C@@H](O)[C@@H]1O [Luteolin 7-O-glucuronide]		-0.6	-0.013	15884.9	19142	12627.8	-0.307						
O.O.O=c1c(O)c(-c2ccc(O)c(O)c2)oc2cc(O)cc(O)c12 [Quercetin (dihydrate)]		-1.56	-1.162				-1.361	3988.66	7625.22	352.104			
COc1cc(O)cc(O)c1C(=O)/C=C/c1ccccc1 [Cardamonin]		-0.394	0.139					17936.7	21621.9	14251.5			-0.127
CC(=O)OCCc1ccc(O)c(O)c1 [4-Hydroxytyrosol acetate]	-0.526												
O=c1c(O[C@@H]2O[C@H](CO)[C@H](O)[C@H](O)[C@H]2O)c(-c2ccc(O)c(O)c2)oc2cc(O)cc(O)c12 [Hyperoside]		-0.253	-0.241	16752.5	23311.4	10193.6	-0.247						
O=C(/C=C/c1ccc(O)c(O)c1)OCCc1ccccc1 [Caffeic acid phenethyl ester]		-0.979	-0.394	11579.1			-0.686		14598.6	8559.5			
CC(=O)Cc1cc(=O)c2c(C)cc(O)c([C@@H]3O[C@H](CO)[C@@H](O)[C@H](O)[C@H]3O)c2o1 [Aloesin]		0.457	-0.177					21354.9	31839.2	10870.5	0.14		
OCc1ccc(O[C@@H]2O[C@H](CO)[C@@H](O)[C@H](O)[C@H]2O)cc1 [Gastrodin]		-1.05	-0.621				-0.836	9937.48	13738.4	6136.55			
C[C@@H]1O[C@@H](O[C@H]2[C@H](Oc3c(-c4ccc(O)cc4)oc4cc(O)cc(O)c4c3=O)O[C@H](CO)[C@@H](O)[C@@H]2O)[C@H](O)[C@H](O)[C@H]1O [Kaempferol 3-neohesperidoside]		-1.386	-0.619				-1.002	7935.47	9710.86	6160.09			

Continued, in another order:

AvZ (average z score of seeding, SDs from the mean level of seeding)	Z repl 1	Z Repl 2	av puncta [1]	raw data 1 (raw puncta)	raw data 2 (raw puncta)	av Z [2]	av puncta (average of raw data 1 and 2)	raw data 1 (puncta)	raw data 2 (puncta)	av Z [3]	av Z (average Z score of the two replicates, tau biosensor seeding, MCE Phenols Library screen)	Compound	av Z (average Z score of two replicates, Phenols Library screen)
	-0.852	-1.136				-0.994	8376	16120.2	631.756			COc1cc(O)c2c(c1)oc(=O)c1c3cc(O)c(O)cc3oc21 [Wedelolactone]	
	-1.882	-1.187				-1.534	1923.27	3755.83	90.703			O=C(/C=C/c1ccc(O)c(O)c1)c1ccc(O)c(O)c1O [Okanin]	
1.127	0.77	1.484					32106.2	35598.4	28613.9			O=C(O)C(O)c1ccc(O)cc1 (stereo not shown) [p-Hydroxymandelic acid]	
	-0.731	-0.145	14393.7	17568.8	11218.6	-0.438						O=C(/C=C/c1ccc(O)cc1)OC[C@H]1O[C@@H](Oc2c(-c3ccc(O)cc3)oc3cc(O)cc(O)c3c2=O)[C@H](O)[C@@H](O)[C@@H]1O [Tribuloside]	
	-0.056	-0.658	15704.2	25674.3	5734.06	-0.357						O=C(O)Cc1cc(O)ccc1O[C@@H]1O[C@H](CO)[C@@H](O)[C@H](O)[C@H]1O [Phaseoloidin]	
	-0.397	-0.108	16597.3	21578.6	11616.1	-0.253						COc1cc2c(c(O)c1OC)-c1c(cc(OC)c(OC)c1OC)C[C@@H](C)[C@@H](C)C2 [Schisanhenol]	
	1.372	0.426					30068	42819.5	17316.5		0.899	COc1cc(C[C@@H](CO)[C@H](CO)Cc2ccc(O)c(OC)c2)ccc1O [Secoisolariciresinol]	
	-2.134	-1.192				-1.663	380.043	725.667	34.42			Punicalin	
0.399	0.56	0.239					24195.2	33071.8	15318.5			CC(C)(O)CCc1c(O)cc(O)c2c(=O)c(O)c(-c3ccc(O)cc3)oc12 [Noricaritin]	
-0.474	-0.073	-0.875	14449.6					25475.6	3423.63			CC(=O)N[C@@H](Cc1ccc(O)cc1)C(=O)O [N-Acetyl-L-tyrosine]	
